row,melting point,SMILES
1,257 °C,"Cc1cc2c(cc1N(C)C)N=C(c1cccc(C#N)c1)CC(=O)N2 [Example 89, 3-(8-Dimethylamino-7-methyl-4-oxo-4,5-dihydro-3H-benzo[b][1,4]diazepin-2-yl)-benzonitrile]"
2,190 °C,"Cc1cc2c(cc1N(C)C)N=C(c1cccc(-n3nncc3CO)c1)CC(=O)N2 [Example 90, 7-Dimethylamino-4-[3-(5-hydroxymethyl-[1,2,3]triazol-1-yl)-phenyl]-8-methyl-1,3-dihydro-benzo[b][1,4]diazepin-2-one]"
3,251 °C,"CN(C)c1cc2c(cc1C#N)NC(=O)CC(c1cccc(C#N)c1)=N2 [Example 91, 2-(3-Cyano-phenyl)-8-dimethylamino-4-oxo-4,5-dihydro-3H-benzo[b][1,4]diazepine-7-carbonitrile]"
4,186 °C,"CCCN(C)c1cc2c(cc1C)NC(=O)CC(c1cccc(-n3nncc3CO)c1)=N2 [Example 93, 4-[3-(5-Hydroxymethyl-[1,2,3]triazol-1-yl)-phenyl]-8-methyl-7-(methyl-propyl-amino)-1,3-dihydro-benzo[b][1,4]diazepin-2-one]"
5,207 °C,"CCN(C)c1cc2c(cc1C)NC(=O)CC(c1cccc(-n3nncc3CO)c1)=N2 [Example 94, 7-(Ethyl-methyl-amino)-4-[3-(5-hydroxymethyl-[1,2,3]triazol-1-yl)-phenyl]-8-methyl-1,3-dihydro-benzo[b][1,4]diazepin-2-one]"
6,234 °C,"CN(C)c1cc2c(cc1C#N)NC(=O)CC(c1cccc(-n3nncc3CO)c1)=N2 [Example 95, 8-Dimethylamino-2-[3-(5-hydroxymethyl-[1,2,3]triazol-1-yl)-phenyl]-4-oxo-4,5-dihydro-3H-benzo[b][1,4]diazepine-7-carbonitrile]"
7,207 °C,"CC(C)N(C)c1cc2c(cc1Cl)NC(=O)CC(c1cccc(-n3nncc3CO)c1)=N2 [Example 96, 8-Chloro-4-[3-(5-hydroxymethyl-[1,2,3]triazol-1-yl)-phenyl]-7-(isopropyl-methyl-amino)-1,3-dihydro-benzo[b][1,4]diazepin-2-one]"
8,194 °C,"CCCN(C)c1cc2c(cc1C)NC(=O)CC(c1cccc(-c3cc(C)no3)c1)=N2 [Example 97, 8-Methyl-4-[3-(3-methyl-isoxazol-5-yl)-phenyl]-7-(methyl-propyl-amino)-1,3-dihydro-benzo[b][1,4]diazepin-2-one]"
9,248 °C,"Cc1cc(-c2cccc(C3=Nc4cc(N(C)C)c(C#N)cc4NC(=O)C3)c2)on1 [Example 98, 8-Dimethylamino-2-[3-(3-methyl-isoxazol-5-yl)-phenyl]-4-oxo-4,5-dihydro-3H-benzo[b][1,4]diazepine-7-carbonitrile]"
10,204 °C,"Cc1cc(-c2cccc(C3=Nc4cc(N(C)C)c(C)cc4NC(=O)C3)c2)on1 [Example 100, 7-Dimethylamino-8-methyl-4-[3-(3-methyl-isoxazol-5-yl)-phenyl]-1,3-dihydro-benzo[b][1,4]diazepin-2-one]"
11,194 °C,"Cc1cc(-c2cccc(C3=Nc4cc(N(C)CC(C)C)c(Cl)cc4NC(=O)C3)c2)on1 [Example 102, 8-Chloro-7-(isobutyl-methyl-amino)-4-[3-(3-methyl-isoxazol-5-yl)-phenyl]-1,3-dihydro-benzo[b][1,4]diazepin-2-one]"
12,241 °C,"N#Cc1cc2c(cc1N1CCCC1)N=C(c1cccc(-n3nncc3CO)c1)CC(=O)N2 [Example 103, 2-[3-(5-Hydroxymethyl-[1,2,3]triazol-1-yl)-phenyl]-4-oxo-8-pyrrolidin-1-yl-4,5-dihydro-3H-benzo[b][1,4]diazepine-7-carbonitrile]"
13,267 °C,"Cc1cc(-c2cccc(C3=Nc4cc(N5CCCC5)c(C#N)cc4NC(=O)C3)c2)on1 [Example 104, 2-[3-(3-Methyl-isoxazol-5-yl)-phenyl]-4-oxo-8-pyrrolidin-1-yl-4,5-dihydro-3H-benzo[b][1,4]diazepine-7-carbonitrile]"
14,221 °C,"CCCN(C)c1cc2c(cc1C#N)NC(=O)CC(c1cccc(-n3nncc3CO)c1)=N2 [Example 105, 2-[3-(5-Hydroxymethyl-[1,2,3]triazol-1-yl)-phenyl]-8-(methyl-propyl-amino)-4-oxo-4,5-dihydro-3H-benzo[b][1,4]diazepine-7-carbonitrile]"
15,133 °C,"CCCN(C)c1cc2c(cc1C#N)NC(=O)CC(c1cccc(-c3cc(C)no3)c1)=N2 [Example 106, 2-[3-(3-Methyl-isoxazol-5-yl)-phenyl]-8-(methyl-propyl-amino)-4-oxo-4,5-dihydro-3H-benzo[b][1,4]diazepine-7-carbonitrile]"
16,197 °C,"Cc1cc(-c2cccc(C3=Nc4cc(N(C)C(C)C)c(C#N)cc4NC(=O)C3)c2)on1 [Example 108, 8-(Isopropyl-methyl-amino)-2-[3-(3-methyl-isoxazol-5-yl)-phenyl]-4-oxo-4,5-dihydro-3H-benzo[b][1,4]diazepine-7-carbonitrile]"
17,206 °C,"CC(C)N(C)c1cc2c(cc1C#N)NC(=O)CC(c1cccc(-n3nncc3CO)c1)=N2 [Example 109, 2-[3-(5-Hydroxymethyl-[1,2,3]triazol-1-yl)-phenyl]-8-(isopropyl-methyl-amino)-4-oxo-4,5-dihydro-3H-benzo[b][1,4]diazepine-7-carbonitrile]"
18,170 °C,"Cc1cc(-c2cccc(C3=Nc4cc(N(C)CC(C)C)c(C#N)cc4NC(=O)C3)c2)on1 [Example 110, 8-(Isobutyl-methyl-amino)-2-[3-(3-methyl-isoxazol-5-yl)-phenyl]-4-oxo-4,5-dihydro-3H-benzo[b][1,4]diazepine-7-carbonitrile]"
19,246 °C,"Cc1cc(-c2cccc(C3=Nc4cc(N5CCCCC5)c(C#N)cc4NC(=O)C3)c2)on1 [Example 112, 2-[3-(3-Methyl-isoxazol-5-yl)-phenyl]-4-oxo-8-piperidin-1-yl-4,5-dihydro-3H-benzo[b][1,4]diazepine-7-carbonitrile]"
20,230 °C,"CCCN(C)c1cc2c(cc1C(F)(F)F)NC(=O)CC(c1cccc(-n3nncc3CO)c1)=N2 [Example 115, 4-[3-(5-Hydroxymethyl-[1,2,3]triazol-1-yl)-phenyl]-7-(methyl-propyl-amino)-8-trifluoromethyl-1,3-dihydro-benzo[b][1,4]diazepin-2-one]"
21,193 °C,"CCCN(C)c1cc2c(cc1C(F)(F)F)NC(=O)CC(c1cccc(-c3cc(C)no3)c1)=N2 [Example 116, 4-[3-(3-Methyl-isoxazol-5-yl)-phenyl]-7-(methyl-propyl-amino)-8-trifluoromethyl-1,3-dihydro-benzo[b][1,4]diazepin-2-one]"
22,195 °C,"Cc1cc(-c2cccc(C3=Nc4cc(N(C)CC(C)C)c(C(F)(F)F)cc4NC(=O)C3)c2)on1 [Example 118, 7-(Isobutyl-methyl-amino)-4-[3-(3-methyl-isoxazol-5-yl)-phenyl]-8-trifluoromethyl-1,3-dihydro-benzo[b][1,4]diazepin-2-one]"
23,234 °C,"CC(C)N(C)c1cc2c(cc1C(F)(F)F)NC(=O)CC(c1cccc(-n3nncc3CO)c1)=N2 [Example 119, 4-[3-(5-Hydroxymethyl-[1,2,3]triazol-1-yl)-phenyl]-7-(isopropyl-methyl-amino)-8-trifluoromethyl-1,3-dihydro-benzo[b][1,4]diazepin-2-one]"

# Reference: patent publication US6544985B2, “Dihydro-benzo [b][1,4]diazepin-2-one derivatives” (Hoffman-La Roche Inc., priority 2001, dated 2003)
